# Measured values published in US10428066B2, “Imidazo[4,5-C]pyridine and pyrrolo[2,3-C]pyridine derivatives as SSAO inhibitors” (PROXIMAGEN, LLC, priority 2013, dated 2019).
# Where a name gives a salt, the structure may show the parent alone.
# Target: purified recombinantly expressed human SSAO (Homo sapiens (Human), UniProt Q16853)
# Experiment: SSAO enzyme inhibition assay (HRP-coupled hydrogen peroxide detection or 14C-benzaldehyde detection, benzylamine substrate)
# Format: biochemical
# Conditions: human recombinant SSAO, RT
# Method: All primary assays were performed at RT. with purified recombinantly expressed human SSAO. Enzyme was prepared essentially as described in Öhman et al. (Protein Expression and Purification 46 (2006) 321-331). In addition, secondary- and selectivity assays were performed using SSAO prepared from various tissues or purified rat recombinant SSAO. The enzyme activity was assayed with benzylamine as substrate by measuring either benzaldehyde production, using ^14C-labeled substrate, or by utilizing the production of hydrogen peroxide in a horseradish peroxidase (HRP) coupled reaction. Briefly, test compounds were dissolved in dimethyl sulfoxide (DMSO) to a concentration of 10 mM. Dose-response measurements were assayed by either creating 1:10 serial dilutions in DMSO to produce a 7 point curve or by making 1:3 serial dilutions in DMSO to produce 11 point curves.
# In a horseradish peroxidase (HRP) coupled reaction, hydrogen peroxide oxidation of 10-acetyl-3,7-dihydroxyphenoxazine produced resorufin, which is a highly fluorescent compound (Zhout and Panchuk-Voloshina. Analytical Biochemistry 253 (1997) 169-174; Amplex® Red Hydrogen Peroxide/peroxidase Assay kit, Invitrogen A22188). Enzyme and compounds in 50 mM sodium phosphate, pH 7.4 were set to pre-incubate in flat-bottomed microtiter plates for approximately 15 min before initiating the reaction by addition of a mixture of HRP, benzylamine and Amplex reagent. Benzylamine concentration was fixed at a concentration corresponding to the Michaelis constant, determined using standard procedures. Fluorescence intensity was then measured at several time points during 1-2 h, exciting at 544 nm and reading the emission at 590 nm. For the human SSAO assay final concentrations of the reagents in the assay wells were: SSAO enzyme 1 ug/ml, benzylamine 100 uM, Amplex reagent 20 uM, HRP 0.1 U/mL and varying concentrations of test compound. The inhibition was measured as % decrease of the signal compared to a control without inhibitor (only diluted DMSO). The background signal from a sample containing no SSAO enzyme was subtracted from all data points. Data was fitted to a four parameter logistic model and IC50 values were calculated using the GraphPad Prism 4 or XLfit 4 programs.
# SSAO activity was assayed using 14C-labeled benzylamine and analysed by measuring radioactive benzaldehyde. In a white 96-well optiplate (Packard), 20 uL of diluted test compound was pre-incubated at room temperature with 20 uL SSAO enzyme for approximately 15 min with continuous agitation. All dilutions were made with PBS. The reaction was initiated by adding 20 uL of the benzylamine substrate solution containing [7-14C] Benzylamine hydrochloride (CFA589, GE Healthcare). The plate was incubated for 1 h as above after which the reaction was stopped by acidification (10 uL 1M aq HCl). Then 90 uL Micro Scint-E solution (Perkin-Elmer) was added to each well and the plate was continuously mixed for 15 min. Phase separation occurred instantly and activity was read in a Topcount scintillation counter (Perkin-Elmer). In the final reaction well, the human recombinant SSAO concentration was 10 ug/ml. In order to optimize sensitivity, the substrate concentration was decreased as compared to the HRP coupled assay in order to get a higher fraction of radioactive product. In the human SSAO assay, benzylamine concentration was 40 uM (0.2 uCi/mL). Data was analysed as above.
# Sequence of purified recombinantly expressed human SSAO (Q16853 29-763): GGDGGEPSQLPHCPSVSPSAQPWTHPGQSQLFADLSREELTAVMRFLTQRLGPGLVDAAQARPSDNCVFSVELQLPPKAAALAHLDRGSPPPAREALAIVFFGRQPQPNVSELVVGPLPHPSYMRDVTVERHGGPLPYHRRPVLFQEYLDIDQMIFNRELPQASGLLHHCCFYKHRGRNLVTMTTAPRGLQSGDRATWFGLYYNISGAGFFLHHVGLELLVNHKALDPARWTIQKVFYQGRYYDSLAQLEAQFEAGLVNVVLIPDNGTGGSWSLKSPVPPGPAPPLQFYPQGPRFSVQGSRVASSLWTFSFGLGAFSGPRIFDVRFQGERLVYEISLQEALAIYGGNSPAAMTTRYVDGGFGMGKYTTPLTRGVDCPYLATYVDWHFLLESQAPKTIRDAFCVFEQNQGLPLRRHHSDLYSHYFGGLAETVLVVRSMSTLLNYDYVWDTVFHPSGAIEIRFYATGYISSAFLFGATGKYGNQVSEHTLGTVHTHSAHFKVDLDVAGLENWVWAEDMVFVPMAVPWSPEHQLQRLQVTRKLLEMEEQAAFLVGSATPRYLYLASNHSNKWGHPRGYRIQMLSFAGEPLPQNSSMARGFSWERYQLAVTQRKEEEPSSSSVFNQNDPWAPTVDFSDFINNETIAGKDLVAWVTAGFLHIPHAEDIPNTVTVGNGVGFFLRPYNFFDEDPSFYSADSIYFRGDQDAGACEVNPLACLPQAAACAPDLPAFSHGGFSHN
row,SMILES,IC50 [nM]
1,"Cc1ccc(-n2c(-c3cnc(N4CCOCC4)nc3)cc3ccncc32)cc1 [Example 130, 4-{5-[1-(4-Methylphenyl)-1H-pyrrolo[2,3-c]pyridin-2-yl]pyrimidin-2-yl}morpholine]",50 to 200
2,"Clc1ccc(-n2c(-c3cnc[nH]3)nc3ccncc32)cc1 [Example 44, 5-[3-(4-Chlorophenyl)-3H-imidazo[4,5-c]pyridin-2-yl]-1H-imidazole]",200 to 1200
3,"CS(=O)(=O)Nc1ccc(-c2nc3ccncc3n2-c2ccc(Cl)cc2)cn1 [Example 16, N-{5-[3-(4-Chlorophenyl)-3H-imidazo[4,5-c]pyridin-2-yl]pyridin-2-yl}methanesulfonamide]",200 to 1200
4,"Clc1ccc(-n2c(-c3ccc(-n4cccn4)nc3)cc3ccncc32)cc1 [Example 151, 5-[1-(4-Chlorophenyl)-1H-pyrrolo[2,3-c]pyridin-2-yl]-2-(1H-pyrazol-1-yl)pyridine; bis(trifluoroacetic acid)]",50 to 200
5,"Cc1cc(F)ccc1-n1c(-c2ccc(N3CCOCC3)nc2)nc2ccncc21 [Example 62, 4-{5-[3-(4-Fluoro-2-methylphenyl)-3H-imidazo[4,5-c]pyridin-2-yl]pyridin-2-yl}morpholine]",50 to 200
6,"CN1CCN(c2ccc(-c3nc4ccncc4n3-c3ccc(F)cc3)cn2)CC1=O [Example 106, 4-{5-[3-(4-Fluorophenyl)-3H-imidazo[4,5-c]pyridin-2-yl]pyridin-2-yl}-1-methylpiperazin-2-one]",50 to 200
7,"Fc1ccc(-n2c(-c3cnc(NC4CC4)nc3)nc3ccncc32)cc1 [Example 10, N-Cyclopropyl-5-[3-(4-fluorophenyl)-3H-imidazo[4,5-c]pyridin-2-yl]pyrimidin-2-amine]",50 to 200
8,"Nc1ccc(-c2nc3ccncc3n2-c2ccc(Cl)cc2F)cn1 [Example 105, 5-[3-(4-Chloro-2-fluorophenyl)-3H-imidazo[4,5-c]pyridin-2-yl]pyridin-2-amine]",200 to 1200
9,"Cc1ccc(-n2c(-c3ccc(N4C[C@@H](C)O[C@@H](C)C4)nc3)nc3ccncc32)cn1 [Example 103, (2R,6S)-2,6-Dimethyl-4-{5-[3-(6-methylpyridin-3-yl)-3H-imidazo[4,5-c]pyridin-2-yl]pyridin-2-yl}morpholine; tris(trifluoroacetic acid)]",50 to 200
10,"c1cc2nc(-c3cnc(N4CCOCC4)nc3)n(-c3ccc(C4CC4)cc3)c2cn1 [Example 96, 4-{5-[3-(4-Cyclopropylphenyl)-3H-imidazo[4,5-c]pyridin-2-yl]pyrimidin-2-yl}morpholine]",50 to 200
11,"Clc1ccc(-n2c(-c3ccc(CN4CCOCC4)nc3)nc3ccncc32)cc1 [Example 3, 4-({5-[3-(4-Chlorophenyl)-3H-imidazo[4,5-c]pyridin-2-yl]pyridin-2-yl}methyl)morpholine]",50 to 200
12,"Clc1ccc(-n2c(-c3ccncc3)nc3ccncc32)cc1 [Example 2, 4-[3-(4-Chlorophenyl)-3H-imidazo[4,5-c]pyridin-2-yl]pyridine]",200 to 1200
13,"CN(C)c1cc(-c2nc3ccncc3n2-c2ccc(F)cc2)ccn1 [Example 109, 4-[3-(4-Fluorophenyl)-3H-imidazo[4,5-c]pyridin-2-yl]-N,N-dimethylpyridin-2-amine]",200 to 1200
14,"Fc1cc(Cl)ccc1-n1c(-c2cnc(N3CCOCC3)nc2)nc2ccncc21 [Example 77, 4-{5-[3-(4-Chloro-2-fluorophenyl)-3H-imidazo[4,5-c]pyridin-2-yl]pyrimidin-2-yl}morpholine]",200 to 1200
15,"Fc1ccc(-n2c(-c3cnc(N4CCOCC4)nc3)nc3ccncc32)c(Cl)c1 [Example 56, 4-{5-[3-(2-Chloro-4-fluorophenyl)-3H-imidazo[4,5-c]pyridin-2-yl]pyrimidin-2-yl}morpholine]",200 to 1200
16,"Cc1cc(NC2CCOCC2)ncc1-c1nc2ccncc2n1-c1ccc(F)cc1 [Example 100, 5-[3-(4-Fluorophenyl)-3H-imidazo[4,5-c]pyridin-2-yl]-4-methyl-N-(oxan-4-yl)pyridin-2-amine]",200 to 1200
17,"CCOCCNc1ncc(-c2nc3ccncc3n2-c2ccc(F)cc2)cn1 [Example 42, N-(2-Ethoxyethyl)-5-[3-(4-fluorophenyl)-3H-imidazo[4,5-c]pyridin-2-yl]pyrimidin-2-amine]",50 to 200

row,SMILES,IC50 [nM]
1,"Fc1ccc(-n2c(-c3ccc(C4CCOCC4)nn3)nc3ccncc32)cc1 [Example 15, 3-[3-(4-Fluorophenyl)-3H-imidazo[4,5-c]pyridin-2-yl]-6-(oxan-4-yl)pyridazine]",50 to 200
2,"CN1CCN(c2ncc(-c3nc4ccncc4n3-c3ccc(F)cc3)cn2)CC1=O [Example 40, 4-{5-[3-(4-Fluorophenyl)-3H-imidazo[4,5-c]pyridin-2-yl]pyrimidin-2-yl}-1-methylpiperazin-2-one]",50 to 200
3,"Clc1ccc(-n2c(-c3cncc(Cl)c3)cc3ccncc32)cc1 [Example 150, 3-Chloro-5-[1-(4-chlorophenyl)-1H-pyrrolo[2,3-c]pyridin-2-yl]pyridine]",50 to 200
4,"O=C(c1ccc(-c2nc3ccncc3n2-c2ccc(Cl)cc2)cn1)N1CCOCC1 [Example 6, 4-({5-[3-(4-Chlorophenyl)-3H-imidazo[4,5-c]pyridin-2-yl]pyridin-2-yl}carbonyl)morpholine]",200 to 1200
5,"O=c1cc(-c2nc3ccncc3n2-c2ccc(Cl)cc2F)cc[nH]1 [Example 34, 4-[3-(4-Chloro-2-fluorophenyl)-3H-imidazo[4,5-c]pyridin-2-yl]-1,2-dihydropyridin-2-one]",50 to 200
6,"Cn1ccc(-c2nc3ccncc3n2-c2ccc(F)cc2)cc1=O [Example 114, 4-[3-(4-Fluorophenyl)-3H-imidazo[4,5-c]pyridin-2-yl]-1-methyl-1,2-dihydropyridin-2-one]",200 to 1200
7,"Cc1ccc(-n2c(-c3ccc(N4CCOCC4)nc3)nc3ccncc32)cc1 [Example 63, 4-{5-[3-(4-Methylphenyl)-3H-imidazo[4,5-c]pyridin-2-yl]pyridin-2-yl}morpholine]",200 to 1200
8,"COc1nc(N2CCOCC2)ccc1-c1nc2ccncc2n1-c1ccc(F)cc1 [Example 28, 4-{5-[3-(4-Fluorophenyl)-3H-imidazo[4,5-c]pyridin-2-yl]-6-methoxypyridin-2-yl}morpholine]",50 to 200
9,"CN1CCN(Cc2cccc(-c3nc4ccncc4n3-c3ccc(Cl)cc3)c2)CC1 [Example 45, 1-({3-[3-(4-Chlorophenyl)-3H-imidazo[4,5-c]pyridin-2-yl]phenyl}methyl)-4-methylpiperazine; formic acid]",200 to 1200
10,"Fc1ccc(-n2c(-c3ccc(N4CCOCC4)nc3)nc3ccncc32)cc1 [Example 54, 4-{5-[3-(4-Fluorophenyl)-3H-imidazo[4,5-c]pyridin-2-yl]pyridin-2-yl}morpholine]",200 to 1200
11,"COCCN(C)c1ncc(-c2nc3ccncc3n2-c2ccc(C)cc2)cn1 [Example 117, N-(2-Methoxyethyl)-N-methyl-5-[3-(4-methylphenyl)-3H-imidazo[4,5-c]pyridin-2-yl]pyrimidin-2-amine]",200 to 1200
12,"Clc1ccc(-n2c(-c3cccnc3)nc3ccncc32)cc1 [Example 1, 3-[3-(4-Chlorophenyl)-3H-imidazo[4,5-c]pyridin-2-yl]pyridine]",200 to 1200
13,"Cc1nc(N2CCOCC2)ncc1-c1nc2ccncc2n1-c1ccc(F)cc1 [Example 26, 4-{5-[3-(4-Fluorophenyl)-3H-imidazo[4,5-c]pyridin-2-yl]-4-methylpyrimidin-2-yl}morpholine]",50 to 200
14,"Cc1ccc(-n2c(-c3cnc(N4CCOCC4)cc3C)nc3ccncc32)cc1 [Example 97, 4-{4-Methyl-5-[3-(4-methylphenyl)-3H-imidazo[4,5-c]pyridin-2-yl]pyridin-2-yl}morpholine]",200 to 1200
15,"Clc1ccc(-n2c(-c3cnc(N4CCNCC4)o3)nc3ccncc32)cc1 [Example 18, 1-{5-[3-(4-Chlorophenyl)-3H-imidazo[4,5-c]pyridin-2-yl]-1,3-oxazol-2-yl}piperazine dihydrochloride]",50 to 200
16,"Cc1ccc(-n2c(-c3cnc(N4C[C@@H](C)O[C@@H](C)C4)nc3)nc3ccncc32)nc1 [Example 36, (2R,6S)-2,6-Dimethyl-4-{5-[3-(5-methylpyridin-2-yl)-3H-imidazo[4,5-c]pyridin-2-yl]pyrimidin-2-yl}morpholine]",50 to 200
